Experimental data taken from patent US6664277B1, “Prenylation inhibitors containing dimethylcyclobutane and methods of their synthesis and use” (PPD Discovery, Inc., priority 2002, dated 2003).

These molecules were tested against T1, GGPTase I (Rattus norvegicus, UniProt P53610+Q04631) (assay: GGPTase I inhibition assay ([3H]GGPP transfer to Ras-CVLL)). Conditions: Table I; test compound 100 nM; mixtures of regioisomers and/or enantiomers unless indicated.
T1 construct: made in house; host or cells: Sf9 insect cells (baculovirus co-infection)
T1 sequence (P53610 whole entry, one chain of several): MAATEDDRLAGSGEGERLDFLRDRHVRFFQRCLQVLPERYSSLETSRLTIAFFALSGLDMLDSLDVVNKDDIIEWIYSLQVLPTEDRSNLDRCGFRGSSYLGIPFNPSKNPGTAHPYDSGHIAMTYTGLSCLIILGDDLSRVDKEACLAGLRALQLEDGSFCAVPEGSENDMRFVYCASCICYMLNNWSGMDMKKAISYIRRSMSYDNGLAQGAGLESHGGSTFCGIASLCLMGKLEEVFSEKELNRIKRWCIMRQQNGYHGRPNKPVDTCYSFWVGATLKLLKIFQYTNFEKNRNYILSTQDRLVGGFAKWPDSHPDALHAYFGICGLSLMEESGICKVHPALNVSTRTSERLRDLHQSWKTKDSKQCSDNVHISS
Format: biochemical
Description: GGPTase-I activity was determined by the method of Casey et al, Proc. Natl. Acad. Sci. USA, 1991, 88, 8631-8635. This method measures the transfer of isoprenoid from ^3H-geranylgeranyl diphosphate (GGPP) into a Ras protein with a C-terminal leucine-for-serine substitution (designated as Ras-CVLL).
Assays for the inhibition studies of GGPTase I were performed in a manner analogous to that described by Casey, et al., Proc. Natl. Acad. Sci. USA, 1991, 88, 8631-8635, with the following modifications. For those assays, the reaction mixtures contained the following components in 50 μl:0.25 μM [^3H]GGPP (sp. act. 8-10 Ci/mmol), 2.5 μM Ras-CVLL, 50 mM Tris-Cl, pH 7.7, 20 mM KCl, 5 mM MgCl2, 5 μM ZnCl2, 1 mM DTT, 0.5 mM Zwittergent 3-14 and the desired amount of the compound to be tested for inhibitory potential. After pre-equilibrating the assay mixture at 30° C. in the absence of the enzyme, the reaction was initiated by addition of the enzyme (75 ng). Following an about 10 minute incubation at about 30° C., the reactions were terminated by addition of about 0.5 ml of about 4% SDS. About 40 mg of bovine brain membranes was added to the samples to enhance recovery during precipitation. Product was precipitated by addition of about 0.5 ml of 30% TCA, allowed to stand at room temperature for about 15 minutes, and processed by filtration through glass-fiber filters as described previously (Reiss et al., Methods: Companion to Methods in Enzymology, 1991, 1, 241-245). Reactions were never allowed to proceed to more than 10% completion based on the limiting substrate. Assays for the inhibition studies of FPTase were performed analogous the GGPTase I inhibition studies, except [^3H]GGPP was replaced with 0.25 μM of [^3H]FPP (sp. act. 8-10 ci/mmol) and Ras-CVLL was replaced with 1 μM H-Ras.
Using the method described above, the GGPTase I inhibitory activities of some of the compounds of the present invention were evaluated. The concentration of the test compound used was 100 nM. Mixtures of regioisomers and/or enantiomers are used unless indicated otherwise (for example, the position of substituents on the dimethyl cyclobutane moiety).

Row | Compound | Inhibition
1 | CN1CC[C@H](c2ccccc2)[C@H]1C(N)=O | Yes
2 | CN1Cc2ccccc2C[C@H]1C(N)=O | Yes

Same assay, conditions: Table II; test compound 100 nM; mixtures of regioisomers and/or enantiomers unless indicated

Row | Compound | Inhibition
3 | CC1(C)[C@@H](CC(=O)NC(CO)Cc2ccccc2)C[C@@H]1c1cc(-c2cccnc2)nn1-c1ccc(Cl)c(Cl)c1 (stereo partly shown) [CH2OH] | yes
4 | CC1(C)[C@@H](CC(=O)NC(Cc2ccccc2)C(=O)OCc2ccccc2)C[C@@H]1c1cc(-c2cccnc2)nn1-c1ccc(Cl)c(Cl)c1 (stereo partly shown) [CO2Bn] | yes
5 | CC1(C)[C@@H](CC(=O)NC(Cc2ccccc2)C(=O)O)C[C@@H]1c1cc(-c2cccnc2)nn1-c1ccc(Cl)c(Cl)c1 (stereo partly shown) [CO2H] | yes
6 | COC(=O)C(Cc1ccccc1)NC(=O)C[C@H]1C[C@H](c2cc(-c3cccnc3)nn2-c2ccc(Cl)c(Cl)c2)C1(C)C (stereo partly shown) [CO2Me] | yes
7 | CC1(C)[C@@H](CC(=O)NC(Cc2ccccc2)C(N)=O)C[C@@H]1c1cc(-c2cccnc2)nn1-c1ccc(Cl)c(Cl)c1 (stereo partly shown) [CONH2] | yes
8 | CNC(=O)C(Cc1ccccc1)NC(=O)C[C@H]1C[C@H](c2cc(-c3cccnc3)nn2-c2ccc(Cl)c(Cl)c2)C1(C)C (stereo partly shown) [CONHMe] | yes
9 | CC1(C)[C@@H](CC(=O)NCCc2ccccc2)C[C@@H]1c1cc(-c2cccnc2)nn1-c1ccc(Cl)c(Cl)c1 [H] | yes

Same assay, conditions: Table V; test compound 100 nM; mixtures of regioisomers and/or enantiomers unless indicated

Row | Compound | Inhibition
10 | CC1(C)[C@@H](CC(=O)NC(Cc2ccccc2)C(N)=O)C[C@@H]1c1cc(-c2cccnc2)nn1-c1ccc(Cl)c(Cl)c1 (stereo partly shown) [Bn] | yes
11 | CC1(C)[C@@H](CC(=O)NC(CO)Cc2ccccc2)C[C@@H]1c1cc(-c2cccnc2)nn1-c1ccc(Cl)c(Cl)c1 (stereo partly shown) [CH2OH] | yes
12 | CC1(C)[C@@H](CC(=O)NCCc2ccccc2)C[C@@H]1c1cc(-c2cccnc2)nn1-c1ccc(Cl)c(Cl)c1 [H] | yes
13 | CC1(C)[C@@H](CC(=O)NC(C(N)=O)c2ccccc2)C[C@@H]1c1cc(-c2cccnc2)nn1-c1ccc(Cl)c(Cl)c1 (stereo partly shown) [Ph] | yes

Same assay, conditions: Table VI; test compound 100 nM; mixtures of regioisomers and/or enantiomers unless indicated

Row | Compound | Inhibition
14 | CC1(C)[C@@H](CNC(=O)[C@@H](N)Cc2ccccc2)C[C@H]1c1cc(-c2cccnc2)nn1-c1ccc(Cl)c(Cl)c1 | yes
15 | CN(C(=O)C[C@H]1C[C@H](c2cc(-c3cccnc3)nn2-c2ccc(Cl)c(Cl)c2)C1(C)C)C(Cc1ccccc1)C(N)=O (stereo partly shown) | yes
16 | CC1(C)[C@@H](CCNC(Cc2ccccc2)C(N)=O)C[C@H]1c1cc(-c2cccnc2)nn1-c1ccc(Cl)c(Cl)c1 (stereo partly shown) | no
